In PubChem BioAssay AID1996:
≈ marks a conversion by molar mass, not a printed value.

Details: buffer; pH 7.4; 200.0 µM

SMILES | solubility kinetic
O=C1/C(=C/c2ccc(F)cc2)Oc2cc(OC(=O)N3CCOCC3)ccc21 | < 0.8 µg/mL
CC(=O)c1ccc(N2CCN(c3ncccn3)CC2)cc1 | 7.7 µg/mL (≈ 27.3 µM)
Cn1cnc(S(=O)(=O)N2CCN(c3ccccc3)CC2)c1 | 34.3 µg/mL (≈ 112 µM)
O=C(Nc1ccc(F)cc1)c1cccnc1 | > 32.4 µg/mL
CC1(C(=O)OCC(=O)Nc2ccccc2)CC1(Cl)Cl (stereo not given) | 35 µg/mL (≈ 116 µM)
Brc1ccc(-c2cn3ccccc3n2)cc1 | 0.8 µg/mL (≈ 2.93 µM)
Cc1ccc(C)c(CN2C(=O)COc3ccccc32)c1 | 2.8 µg/mL (≈ 10.5 µM)
CCN(C(=O)Cc1c(C(=O)O)n(C)c2ccccc12)c1cccc(C)c1 | > 52.6 µg/mL
CC(=O)Nc1ccc(NC(=O)c2cc(=O)c3cc(C)c(C)cc3o2)cc1 | 0.6 µg/mL (≈ 1.71 µM)
CC(=O)Nc1ccc(S(=O)(=O)NCCC(=O)Nc2cc(C)ccn2)cc1 | > 56.5 µg/mL
CC(NC(=O)c1ccccc1Cl)C(=O)OCc1cn2cc(Cl)ccc2n1 (stereo not given) | > 58.8 µg/mL
O=S(=O)(Nc1nccs1)c1ccc(F)cc1 | > 38.7 µg/mL
Cc1c(C(=O)c2ccc(Br)cc2)c(=O)n(C)c(=O)n1C | 50.1 µg/mL (≈ 149 µM)
CC1CCN(c2cc(Br)c([N+](=O)[O-])cc2F)CC1 | 3.1 µg/mL (≈ 9.77 µM)
N/C(Cc1ccc([N+](=O)[O-])cc1)=N\OC(=O)c1ccco1 | 18 µg/mL (≈ 62.2 µM)
CCn1ccnc1CN1CCCC(C(=O)c2cc(C)c(OC)c(C)c2)C1 (stereo not given) | 47.6 µg/mL (≈ 134 µM)
O=C(CCCCC(=O)Nc1c(I)cc(I)c(C(=O)O)c1I)Nc1c(I)cc(I)c(C(=O)O)c1I | > 171 µg/mL
O=C(c1ccc2ccccc2c1)N1CCCCC1 | > 35.9 µg/mL
CC(C)c1ccc(NC(=O)Cn2c(=O)oc3ccccc32)cc1 | 2.1 µg/mL (≈ 6.77 µM)
N#Cc1c(F)cccc1NCc1cccnc1 | 33.2 µg/mL (≈ 146 µM)
c1ccc(CN2CCN(Cc3ccc4ccccc4c3)CC2)cc1 | 23.4 µg/mL (≈ 73.9 µM)
CCC1C(=O)N=C(SCC(=O)Nc2nc3ccccc3s2)NC1=O (stereo not given) | > 54.4 µg/mL
CC(C)OP(=O)(OC(C)C)C(Nc1ccc(C(=O)O)cc1)c1ccccc1 (stereo not given) | > 58.7 µg/mL
Cc1c(/C=N/O)c2ccccn2c1C=O | > 30.3 µg/mL

SMILES | solubility kinetic
O=C(NN1CCOCC1)c1ccc(Br)cc1 | > 42.8 µg/mL
CN1CCN(c2ccc([N+](=O)[O-])c(SCCO)c2)CC1 | > 44.6 µg/mL
O=C(c1ccc(F)cc1F)C1CCN(c2ccc([N+](=O)[O-])cn2)CC1 | 1.4 µg/mL (≈ 4.03 µM)
CCOc1c(C)cc(S(=O)(=O)NCc2ccccn2)c(C)c1C | > 50.2 µg/mL
Cn1cc(C(=O)OCC(=O)Nc2ccccc2)c2ccccc21 | 7.8 µg/mL (≈ 25.3 µM)
Cc1nc(-c2ccc([N+](=O)[O-])cc2)c(-c2ccccc2)o1 | 5.1 µg/mL (≈ 18.2 µM)
Cc1ccc2cccc(OCc3ccc(Br)cc3)c2n1 | 0.9 µg/mL (≈ 2.74 µM)
COc1ccc(N(C(C)=O)c2nc3ccccc3[nH]2)cc1 | 38.2 µg/mL (≈ 136 µM)
CCCCc1ccc(NC(=O)Nc2cccnc2)cc1 | 4 µg/mL (≈ 14.9 µM)
OC(CC#CCN1CCCC1)(c1ccccc1)c1ccccc1 | 36.7 µg/mL (≈ 120 µM)
CCN(CC)CCNc1oc(-c2ccccc2)nc1S(=O)(=O)c1ccccc1 | > 59.9 µg/mL
COc1ccc(S(=O)(=O)Nc2ccc(Nc3ccccc3)cc2)cc1 | 4.7 µg/mL (≈ 13.3 µM)
O=C(O)c1ccc(-c2nnc(-c3ccccc3)o2)cc1 | > 39.9 µg/mL
NC(CS(=O)O)C(=O)O (stereo not given) | > 23 µg/mL
O=C(CNS(=O)(=O)c1ccc(F)cc1)N1CCOCC1 | > 45.3 µg/mL
O=C(OCc1ccccc1)c1cccnc1Cl | 32.5 µg/mL (≈ 131 µM)
COC(=O)c1ccc(CO/N=C/c2ccc(OC)cc2)o1 | 13.9 µg/mL (≈ 48 µM)
O=C(Nc1ccc2c(c1)Cc1ccccc1-2)c1ccccc1F | < 0.6 µg/mL
CCSc1ncccc1C(=O)N[C@@H](CCSC)C(=O)OC | 36.1 µg/mL (≈ 110 µM)
N#Cc1ccc(CN2C=NS(=O)(=O)c3ccccc32)cc1 | 43.7 µg/mL (≈ 147 µM)
O=C(CNC(=O)c1ccccc1F)N/N=C/c1cccnc1 | > 45 µg/mL
COC(=O)c1ccc(NC(=O)c2cc[n+]([O-])cc2)cc1 | > 40.8 µg/mL
O=[N+]([O-])c1ccc(CN2CC=C(c3ccccc3)CC2)cc1 | 6.8 µg/mL (≈ 23.1 µM)
COc1ccc(N2C(=O)CSC2c2ccccc2[N+](=O)[O-])cc1 (stereo not given) | 47.7 µg/mL (≈ 144 µM)

SMILES | solubility kinetic
CCCCNC(=S)Nc1ccc(SC(F)F)cc1 | > 43.6 µg/mL
O=C(c1cccc2nc3ccccc3nc12)N1CCOCC1 | 40.9 µg/mL (≈ 139 µM)
CCc1cccc(C)c1NS(=O)(=O)c1cccs1 | 14.6 µg/mL (≈ 51.9 µM)
O=C(CN1CCN(Cc2ccccc2)CC1)N/N=C/c1ccco1 | > 49 µg/mL
O=C(CC12CC3CC(CC(C3)C1)C2)NCc1ccc(F)cc1 | < 0.6 µg/mL
O=C(NCCNC(=O)c1ccc(F)cc1)c1ccc(F)cc1 | 12.9 µg/mL (≈ 42.4 µM)
O=C(OCc1ccc([N+](=O)[O-])cc1)c1cc2ccccc2oc1=O | < 0.7 µg/mL
CN(C)CCNC(=S)Nc1ccc(F)c(F)c1F | > 41.6 µg/mL
CCC(=O)Nc1ccc(NC(=S)NC(=O)/C=C/c2ccco2)cc1 | 3 µg/mL (≈ 8.74 µM)
NS(=O)(=O)c1cccc(NC(=O)c2cccs2)c1 | > 42.3 µg/mL
CCOc1ccc(N2C=Nc3ccc(OCC)cc3C2)cc1 | 11.6 µg/mL (≈ 39.1 µM)
Cc1cccc(Nc2nc(NCc3ccco3)nc(N)c2[N+](=O)[O-])c1 | < 0.1 µg/mL
CC(C)N1CCN(Cc2cccc3nonc23)CC1CCO (stereo not given) | 42.2 µg/mL (≈ 139 µM)
Cc1ccc(CNC(=O)Nc2ccccc2)n1C | 31.6 µg/mL (≈ 130 µM)
CCN(CC(=O)Nc1c(F)cccc1F)C(=O)Cc1ccccc1 | > 49.9 µg/mL
c1ccc(N2CCN(Cc3cn4ccccc4n3)CC2)cc1 | 40.8 µg/mL (≈ 140 µM)
CCNc1cc(N2CCOCC2)nc(SC)n1 | > 38.2 µg/mL
O=C(O)C1C2C=CC(O2)C1C(=O)NCCc1cccc(Cl)c1 (stereo not given) | > 48.3 µg/mL
CCCCc1nc2sc3c(=O)[nH]cnc3c2c2c1CCCC2 | < 0.2 µg/mL
N/C(=N\OC(=O)c1ccc(Br)cc1)c1cccc([N+](=O)[O-])c1 | 0.8 µg/mL (≈ 2.2 µM)
O=C(Nc1ccc(Nc2ccccc2)cc1)c1ccccc1 | 1.6 µg/mL (≈ 5.55 µM)
O=C(Cc1ccccc1)N1CCN=C1SCc1cccc([N+](=O)[O-])c1 | 9.7 µg/mL (≈ 27.3 µM)
COc1ccc(CC(=O)NCc2nc(-c3ccccc3)no2)cc1 | 13.4 µg/mL (≈ 41.4 µM)

Now from value to compound:

solubility kinetic | SMILES
7.5 µg/mL (≈ 19.6 µM) | CCOc1ccccc1N1CCN(C(=O)c2ccc3nc(N)sc3c2)CC1
> 48.3 µg/mL | O=C(Nc1sc2c(c1C(=O)O)CCC2)c1cccc(Cl)c1
> 45 µg/mL | Cc1ccc(Cl)cc1NS(=O)(=O)c1cn(C)nc1C
> 44.8 µg/mL | CCN1CCN(c2cc(C)nc(-c3ccccc3O)n2)CC1
40.3 µg/mL (≈ 131 µM) | CCCNS(=O)(=O)c1cc2c3c(c1)C(C)C(=O)N3CCC2 (stereo not given)
0.8 µg/mL (≈ 2.55 µM) | COc1ccc(NC(=O)c2cc(-c3ccco3)on2)c(OC)c1
> 44.1 µg/mL | COc1ccc(-n2c3c(cc(C#N)c2=O)C(=O)CCC3)cc1
> 40.8 µg/mL | O=C(CNC(=O)C1CC1)Nc1ccc(F)c(F)c1F
> 48.8 µg/mL | O=S(=O)(NC1CCCCC1)c1ccc(N2CCOCC2)nc1
38.3 µg/mL (≈ 138 µM) | COc1ccc(CN(C)C2CCN(C)CC2)cc1OC
2.4 µg/mL (≈ 8.28 µM) | Cc1c(C(=O)NCc2ccco2)oc2c(Cl)cccc12
48.7 µg/mL (≈ 130 µM) | COc1ccc(CC(=O)N2CCN(c3cccc(Cl)c3)CC2)cc1OC
> 48.5 µg/mL | CC1CCN(S(=O)(=O)c2ccc3c(c2)n(C)c(=O)n3C)CC1
> 47.8 µg/mL | Cc1cc(S(=O)(=O)NCCN2CCOCC2)ccc1Cl
> 45.8 µg/mL | Nc1nc2sc3c(c2cc1C(=O)NCC(=O)O)CCCC3
5.5 µg/mL (≈ 17.9 µM) | Cc1cc(C(=O)OC(C)C(=O)NC2CCCCC2C)c(C)o1 (stereo not given)
1.7 µg/mL (≈ 4.64 µM) | Cc1ccc2nc(SCC(=O)N3CCN(c4ccccc4)CC3)[nH]c2c1
30 µg/mL (≈ 107 µM) | CSc1ccccc1NC(=S)NC1CCCCC1
> 46 µg/mL | CN1CCCC(OC(=O)/C(C#N)=C/c2ccccc2)C1.Cl (stereo not given)
8.3 µg/mL (≈ 20.2 µM) | O=C(CNS(=O)(=O)c1ccc(Cl)cc1)N1CCN(c2ccc(F)cc2)CC1
40.8 µg/mL (≈ 130 µM) | Cc1ccccc1OC(C)C(=O)Nc1ccc2c(c1)OCCO2 (stereo not given)
19.2 µg/mL (≈ 66.4 µM) | Cc1ccc(C)c(C(=O)CSc2nc(N)cc(=O)[nH]2)c1
> 53 µg/mL | COc1ccc(CCNC(=O)CCc2nc3ccccc3[nH]2)cc1OC
> 29.3 µg/mL | CCOC(=O)c1c(C)[nH]c(C)c1C=O
2.9 µg/mL (≈ 9.23 µM) | COc1ccccc1NC(=O)CC(=O)c1cccc([N+](=O)[O-])c1

solubility kinetic | SMILES
28.1 µg/mL (≈ 82.8 µM) | CC(C)CC(=O)N1CCN(Cc2ccc(Br)cc2)CC1
35.1 µg/mL (≈ 118 µM) | COc1cc2c(cc1OC)CN(Cc1ccc(C)cc1)CC2
20.3 µg/mL (≈ 62 µM) | CCCOc1ccc(CC(=O)NCCc2ccccc2)cc1OC
> 48.6 µg/mL | Cc1c(Cl)cccc1NC(=O)CCN1CCC(C(N)=O)CC1
> 48.1 µg/mL | CCOc1cc(C)c(S(=O)(=O)NCc2ccccn2)cc1C
> 36.2 µg/mL | COC(=O)CN1C(=O)c2cccc3cccc1c23
28.4 µg/mL (≈ 80.8 µM) | FC(F)(F)c1cccc(Cc2noc(CN3C[C@@H]4CCC[C@H]3C4)n2)c1
> 45.2 µg/mL | COc1ccc(N2CCN(C(=O)c3cc(C)on3)CC2)cc1
> 32.7 µg/mL | CC1CCCCC1NC(=O)c1ccncc1 (stereo not given)
> 45.6 µg/mL | O=C(O)c1cc(S(=O)(=O)N2CCCCC2)ccc1Cl
44.7 µg/mL (≈ 145 µM) | CC12CCC(=O)N1C(C(=O)NCc1ccccc1F)CS2 (stereo not given)
> 40 µg/mL | O=C1C2CCCN2C(=S)N1c1ccc(Cl)cc1 (stereo not given)
> 73.6 µg/mL | CCC1=C(C)CN(C(=O)NCCc2ccc(S(=O)(=O)NC(=O)NC3CCC(C)CC3)cc2)C1=O (stereo not given)
5.4 µg/mL (≈ 14.8 µM) | O=C(COc1ccc(F)c(Cl)c1)Nc1ccc(N2CCOCC2)cc1
44.7 µg/mL | Br.COc1ccc(NC2=NCCCCC2)cc1
> 45.3 µg/mL | Cc1cc(OC(=O)c2ccc(C)c(C)c2)c([N+](=O)[O-])c(=O)[nH]1
42.6 µg/mL (≈ 143 µM) | O=C(c1ccc(F)cc1)N(c1ccccn1)C1CCCCC1
2 µg/mL (≈ 7.1 µM) | COc1cc(Cl)c(C)cc1NC(=O)CC1CCCC1
< 0.3 µg/mL | Cc1ccc(NC(=O)OCc2cc(-c3ccccc3)on2)cc1
24.5 µg/mL (≈ 76.5 µM) | O=C(CN1CCN(c2ccc(F)cc2)CC1)Nc1nccs1
27.4 µg/mL (≈ 62.5 µM) | Cc1ccc(NS(=O)(=O)c2ccc(C(C)C)cc2)cc1S(=O)(=O)N1CCOCC1
34.8 µg/mL (≈ 115 µM) | COC(=O)c1c(C)oc(C)c1S(=O)(=O)N1CCCCC1
> 43.1 µg/mL | Cc1noc(C)c1S(=O)(=O)N1CCC(C(N)=O)CC1
3.1 µg/mL (≈ 8.63 µM) | CCCOC(=O)C1=C(C)NC(=O)NC1c1ccc(Br)s1 (stereo not given)
